The source of these data is publication PMC11460631, “Inhibition of transient receptor potential vanilloid 3 channels by antimalarial hydroxychloroquine alleviates TRPV3-dependent dermatitis” (The Journal of Biological Chemistry, 2024).

SMILES strings stand for the structures.

The target in test [1] is T1, TRPV3 F633 alanine mutation (Homo sapiens, UniProt Q8NET8, F633A).
T1 construct: YFP or GFP; expressed in transfected cells; host or cells: HEK293T
T1 sequence (Q8NET8 1-790 F633A): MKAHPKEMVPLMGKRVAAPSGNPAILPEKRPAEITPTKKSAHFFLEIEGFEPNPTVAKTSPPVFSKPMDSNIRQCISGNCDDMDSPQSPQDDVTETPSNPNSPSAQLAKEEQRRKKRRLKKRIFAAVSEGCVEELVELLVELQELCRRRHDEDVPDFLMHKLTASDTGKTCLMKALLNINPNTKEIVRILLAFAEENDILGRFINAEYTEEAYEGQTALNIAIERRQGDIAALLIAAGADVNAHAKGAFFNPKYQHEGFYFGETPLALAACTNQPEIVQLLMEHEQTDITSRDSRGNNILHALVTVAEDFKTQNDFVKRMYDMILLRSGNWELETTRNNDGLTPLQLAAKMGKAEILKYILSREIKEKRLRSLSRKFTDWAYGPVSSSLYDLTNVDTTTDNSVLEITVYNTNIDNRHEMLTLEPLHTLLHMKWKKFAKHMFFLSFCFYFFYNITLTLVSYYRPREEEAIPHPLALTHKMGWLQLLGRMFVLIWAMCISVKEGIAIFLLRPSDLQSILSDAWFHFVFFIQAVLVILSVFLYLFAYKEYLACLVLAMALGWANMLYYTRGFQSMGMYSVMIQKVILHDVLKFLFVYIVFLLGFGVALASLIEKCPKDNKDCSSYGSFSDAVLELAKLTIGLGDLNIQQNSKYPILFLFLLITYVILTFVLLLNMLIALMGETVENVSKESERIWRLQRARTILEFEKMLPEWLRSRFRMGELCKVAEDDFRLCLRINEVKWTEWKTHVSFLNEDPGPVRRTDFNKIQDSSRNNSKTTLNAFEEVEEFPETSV
Nature of the test: Whole-cell recording of TRPV3 F633 alanine mutant. To be noted: 1 mM 2-APB, ± 80 mV. Type of test: cell-based. From the text: As we mentioned above, HCQ may act as a pore blocker of TRPV3. To probe the binding configuration of HCQ to TRPV3, we carried out molecular docking using Rosetta suite (https://rosettacommons.org) ([21]) and validated the docking models with point mutations in TRPV3 (Fig. 4A). […] Furthermore, when we introduced L670A to L591A mutant, we also observed a left shift on the concentration–response curve on this double mutant as compared to L591A mutant (Fig. 4H).
Figure 4 Residues of the pore domain are critical for HCQ inhibition on TRPV3.A, left panel, docking model of HCQ to the pore domain of TRPV3 structure (6uw4). Right panels, top view and side view of the HCQ-binding pocket. B-J, representative whole-cell recording of TRPV3 and mutants in response to 1 mM 2-APB, the mixture of 1 mM 2-APB and concentration gradients of HCQ with the holding potential of ± 80 mV. K, concentration–response curves of HCQ in WT TRPV3 and mutants (n = 3–5 cells). L, quantification of the inhibitory ratio of HCQ (100 μM) on WT, L591A, and N671Q. […]
All data from whole-cell recordings were analyzed in Igor Pro (WaveMetrics). IC50 values were determined by fitting the Hill equation to concentration-response relationships. […]

Test [2] has as its target T2, mTRPV1 (Mus musculus, UniProt Q704Y3).
T2 construct: YFP or GFP; expressed in transfected cells; host or cells: HEK293T
The test can be described thus: Whole-cell current recordings, mTRPV1. Type of test: cell-based, murine. The conditions noted are these: 100 μM HCQ; current activated by 5 μM capsaicin. As for the experimental part:
To elucidate the specificity of HCQ inhibition on TRPV3, we conducted whole-cell current recordings on other known pruritus-related TRP channels, such as hTRPA1, mTRPV1, mTRPV4, and mTRPM8 (Fig. 3, A and F). […] Because of the relatively larger inhibition of HCQ on mTRPM8 current, we tested the concentration dependence of HCQ on mTRPM8 channels.
HEK293T cells are cultured using Dulbecco's modified Eagle's medium containing 10% fetal bovine serum and 1% penicillin-streptomycin in a cell incubator with 5% CO2 at 37 °C. Plasmids of murine TRPV1, TRPV4, TRPM8, and human TRPV3, TRPA1 are labeled with YFP or GFP as indicators for subsequent electrophysiological recordings. Complementary DNA constructs of ion channels were transiently transfected with Lipofectamine 3000 (Invitrogen). And 12 to 18 h after transient transfection, electrophysiological recordings were performed.
Patch-clamp recordings were carried out with a HEKA EPC10 amplifier controlled by PatchMaster software (HEKA; https://www.heka.com/products/products_main.html#soft_pm) ([36]). Patch pipettes were prepared from borosilicate glass and fire-polished to the resistance of 3 to 8 MΩ by P-97 puller for whole-cell recordings. For single-channel recordings, patch pipettes were fire-polished to a higher resistance of 6 to 10 MΩ. […]

T2 sequence (Q704Y3 whole entry): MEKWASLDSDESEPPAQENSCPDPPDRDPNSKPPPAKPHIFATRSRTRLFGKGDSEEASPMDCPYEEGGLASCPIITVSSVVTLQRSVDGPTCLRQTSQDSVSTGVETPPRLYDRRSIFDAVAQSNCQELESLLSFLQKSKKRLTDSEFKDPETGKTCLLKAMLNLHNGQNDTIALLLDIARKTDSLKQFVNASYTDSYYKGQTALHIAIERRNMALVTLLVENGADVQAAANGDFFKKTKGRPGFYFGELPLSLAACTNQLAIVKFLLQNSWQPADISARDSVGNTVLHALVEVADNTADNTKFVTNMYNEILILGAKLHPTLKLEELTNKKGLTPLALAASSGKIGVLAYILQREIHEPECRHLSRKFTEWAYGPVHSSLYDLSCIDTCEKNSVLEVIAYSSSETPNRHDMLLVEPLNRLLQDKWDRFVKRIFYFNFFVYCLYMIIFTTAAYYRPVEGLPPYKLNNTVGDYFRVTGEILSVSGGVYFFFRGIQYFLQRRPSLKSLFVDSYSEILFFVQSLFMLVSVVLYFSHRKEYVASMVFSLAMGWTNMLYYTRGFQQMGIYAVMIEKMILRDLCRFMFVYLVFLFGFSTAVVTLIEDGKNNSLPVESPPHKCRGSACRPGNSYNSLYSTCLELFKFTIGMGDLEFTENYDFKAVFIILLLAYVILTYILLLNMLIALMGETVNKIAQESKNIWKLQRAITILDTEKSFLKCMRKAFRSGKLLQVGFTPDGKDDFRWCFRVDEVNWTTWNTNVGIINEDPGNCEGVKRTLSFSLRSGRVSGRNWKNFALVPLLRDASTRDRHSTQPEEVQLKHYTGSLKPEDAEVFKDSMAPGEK

The IC50 is the concentration that gives 50% inhibition. A high value points to lower potency. Compound `CCN(CCO)CCCC(C)Nc1ccnc2cc(Cl)ccc12` (centres unmarked) [HCQ, hydroxychloroquine] showed an IC50 in test [1] of 140 ± 10 nM. Further, in test [2], the “reduction of mTRPV1 current” value is on record as 12.37% ± 5.32%.
